Where two headings read alike, the source gives them in different places.
Assays:
full-length HAQ STING = full-length HAQ STING (Homo sapiens (Human), UniProt Q86WV6, G230A/H232R/R293Q/R71H); assay: 3H-cGAMP filtration binding assay (HAQ STING); settings: competition with tritiated cGAMP, HAQ STING membrane; read-out: EC50 (nM), 3H-cGAMP filtration binding assay for HAQ STING
Text: The ability of compounds to bind STING is quantified by the ability to compete with tritiated cGAMP ligand for human STING receptor membrane using a radioactive filter-binding assay. The binding assay employs STING receptor obtained from Hi-Five cell membranes overexpressing full-length HAQ STING prepared in-house and tritiated cGAMP ligand also purified in-house.
The ability of compounds to bind STING is quantified by their ability to compete with tritiated cGAMP ligand for human STING receptor membrane using a radioactive filter-binding assay.
The basic HAQ STING filtration assay protocol is as follows:
Compound and membrane then preincubated for 60 min at RT to allow compound binding to equilibrate. Following equilibration, 8 nM of [^3H] c-GAMP ligand was prepared by diluting into assay buffer, and 50 uL of this working stock was then manually added to each well of the assay plate. […] The filter plates were then dried at 55° C. for 30 min using a pressurized VWR oven before 30 uL of Ultima GoldF scintillate was added to each well. Tritium levels for each reaction well were then measured using a PerkinElmer TopCount plate reader.
After normalization to controls, the percent activity for each compound concentration was calculated by measuring the amount of remaining radioactivity. The plot of percent activity versus the log of compound concentration was fit with a 4-parameter dose response equation to calculate EC50 values.

[1] = system: IFN-β secretion in THP1 cells; assay: IFN-β secretion in THP1 cell culture (5 h); type: cell-based, human
Procedure, shortened: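 THP1 cells incubated with compound for 5 h at 37 °C, 5% CO2, and secreted IFN-β in supernatant quantified by AlphaLISA. Percent effect normalised to 30 uM cGAMP positive control and 0.3% DMSO. EC50 from 4-parameter fit.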

[2] = IFN-β secretion in THP1 cell culture, 5 h, compound at 30 μM, percent activation relative to 2′3′-cGAMP

full-length HAQ STING, sequence (Q86WV6 other isoform, or with tags, fused parts or gaps, stated change not applied): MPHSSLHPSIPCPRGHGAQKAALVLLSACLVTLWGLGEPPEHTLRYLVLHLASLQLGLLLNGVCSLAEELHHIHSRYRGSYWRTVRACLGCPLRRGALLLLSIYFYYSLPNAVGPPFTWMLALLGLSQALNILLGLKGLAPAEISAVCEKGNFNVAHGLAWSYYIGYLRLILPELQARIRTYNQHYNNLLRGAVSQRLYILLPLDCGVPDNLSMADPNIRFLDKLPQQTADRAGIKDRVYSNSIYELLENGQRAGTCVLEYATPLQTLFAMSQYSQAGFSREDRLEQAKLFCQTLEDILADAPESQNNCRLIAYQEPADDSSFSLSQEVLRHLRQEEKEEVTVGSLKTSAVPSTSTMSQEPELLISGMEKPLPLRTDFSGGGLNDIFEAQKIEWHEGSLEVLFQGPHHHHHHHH

Compound | EC50 (full-length HAQ STING) [nM] | % Effect at 30 μM relative to 2′3′-cGAMP [1, 2] [%] | % Effect at 30 μM relative to 2′3′-cGAMP [1] [%]
Nc1ncnc2c1ccn2[C@@H]1O[C@@H]2COP(=O)(O)O[C@@H]3C[C@@H](COP(=O)(O)O[C@H]2[C@H]1O)O[C@H]3n1cnc2c(=O)[nH]cnc21 [Example 67, 9-[(5S,7R,8R,12aR,14R,15R,15aS)-14-(4-amino-7H-pyrrolo[2,3-d]pyrimidin-7-yl)-2,10,15-trihydroxy-2,10-dioxidooctahydro-12H-5,8-methanofuro [3,2-l][1,3,6,9,11,2,10]pentaoxadiphosphacyclotetradecin-7-yl]-1,9-dihydro-6H-purin-6-one] | 6.4 | 111 | 
Nc1nc2c(ncn2[C@@H]2O[C@@H]3COP(O)(=S)O[C@H]4[C@H](F)[C@H](n5cnc6c(=O)[nH]cnc65)O[C@@H]4COP(=O)(O)O[C@@H]2[C@@H]3F)c(=O)[nH]1 (stereo partly drawn) [Example 303, 2-amino-9-[(5R,7R,8S,12aR,14R,15S,15aR,16R)-15,16-difluoro-2,10-dihydroxy-10-oxido-14-(6-oxo-1,6-dihydro-9H-purin-9-yl)-2-sulfidooctahydro-12H-5,8-methanofuro[3,2-l][1,3,6,9,11,2,10]pentaoxadiphosphacyclotetradecin-7-yl]-1,9-dihydro-6H-purin-6-one] | < 1 |  | 106
Nc1nc2c(ncn2[C@@H]2O[C@@]34CO[C@H]3[C@H]2OP(=O)(O)OC[C@H]2O[C@@H](n3cnc5c(=O)[nH]cnc53)[C@H](O)[C@@H]2OP(=O)(O)OC4)c(=O)[nH]1 [Example 316, 2-amino-9-[(2aR,6aS,7R,8R,9aR,14R,14aS,15R)-5,7,12-trihydroxy-5,12-dioxido-8-(6-oxo-1,6-dihydro-9H-purin-9-yl)hexahydro-6aH,2a,14-(epoxymethano)furo [3,2-d]oxeto[2,3-k][1,3,7,9,2,8]tetraoxadiphosphacyclotridecin-15(2H,3H)-yl]-1,9-dihydro-6H-purin-6-one] | 2320 | 12 | 
N#Cc1cn([C@@H]2O[C@@H]3COP(=O)(O)O[C@@H]4[C@H](O)[C@@H](COP(=O)(O)O[C@H]3[C@H]2O)O[C@H]4n2cnc3c(=O)[nH]c(N)nc32)c2ncnc(N)c12 [Example 60, 4-amino-7-[(5R,7R,8R,12aR,14R,15R,15aS,16R)-7-(2-amino-6-oxo-1,6-dihydro-9H-purin-9-yl)-2,10,15,16-tetrahydroxy-2,10-dioxidooctahydro-12H-5,8-methanofuro[3,2-l][1,3,6,9,11,2,10]pentaoxadiphosphacyclotetradecin-14-yl]-7H-pyrrolo[2,3-d]pyrimidine-5-carbonitrile] | 42.5 | 12 | 
Nc1ncnc2c1ncn2[C@@H]1O[C@@H]2COP(=O)(O)O[C@@H]3[C@H](O)[C@@H](COP(=O)(O)O[C@H]2[C@H]1O)O[C@H]3n1ncc2c(=O)[nH]cnc21 [Example 66, 1-[(5R,7R,8R,12aR,14R,15R,15aS,16R)-14-(6-amino-9H-purin-9-yl)-2,10,15,16-tetrahydroxy-2,10-dioxidooctahydro-12H-5,8-methanofuro[3,2-l][1,3,6,9,11,2,10]pentaoxadiphosphacyclotetradecin-7-yl]-1,5-dihydro-4H-pyrazolo[3,4-d]pyrimidin-4-one] | 117 | 54 | 
C[C@@H]1OP(=O)(O)O[C@@H]2C[C@@H](COP(=O)(O)O[C@H]3[C@@H](O)[C@H](n4cnc5c(N)ncnc54)O[C@H]31)O[C@H]2n1cnc2c(=O)[nH]c(N)nc21 [Example 18, 2-amino-9-[(5S,7R,8R,12S,12aS,14R,15R,15aS)-14-(6-amino-9H-purin-9-yl)-2,10,15-trihydroxy-12-methyl-2,10-dioxidooctahydro-12H-5,8-methanofuro[3,2-l][1,3,6,9,11,2,10]pentaoxadiphosphacyclotetradecin-7-yl]-1,9-dihydro-6H-purin-6-one] | 53.9 | 74 | 
Nc1ncnc2c1ncn2[C@@H]1O[C@@H]2COP(=O)(O)O[C@@H]3[C@H](O)[C@@H](COP(=O)(O)O[C@H]2[C@H]1O)O[C@H]3c1cnc2c(=O)[nH]cnn12 [Example 68, 7-[(5R,7S,8R,12aR,14R,15R,15aS,16R)-14-(6-amino-9H-purin-9-yl)-2,10,15,16-tetrahydroxy-2,10-dioxidooctahydro-12H-5,8-methanofuro [3,2-l][1,3,6,9,11,2,10]pentaoxadiphosphacyclotetradecin-7-yl]imidazo[2,1-f][1,2,4]triazin-4(3H)-one] | 63.8 | 72 | 
Nc1nc2c(ncn2[C@@H]2O[C@@H]3COP(=O)(O)O[C@H]4[C@H](F)[C@H](n5cnc6c(=O)[nH]cnc65)O[C@@H]4COP(=O)(O)O[C@@H]2[C@@H]3F)c(=O)[nH]1 [Example 315, 2-amino-9-[(5R,7R,8S,12aR,14R,15S,15aR,16R)-15,16-difluoro-2,10-dihydroxy-2,10-dioxido-14-(6-oxo-1,6-dihydro-9H-purin-9-yl)octahydro-12H-5,8-methanofuro [3,2-l][1,3,6,9,11,2,10]pentaoxadiphosphacyclotetradecin-7-yl]-1,9-dihydro-6H-purin-6-one] | 49.9 | 92 | 
NC(=O)c1ncnc2c1ncn2[C@@H]1O[C@@H]2COP(=O)(O)O[C@@H]3[C@H](O)[C@@H](COP(=O)(O)O[C@H]2[C@H]1O)O[C@H]3n1cnc2c(=O)[nH]c(N)nc21 [Example 76, 9-[(5R,7R,8R,12aR,14R,15R,15aS,16R)-7-(2-amino-6-oxo-1,6-dihydro-9H-purin-9-yl)-2,10,15,16-tetrahydroxy-2,10-dioxidooctahydro-12H-5,8-methanofuro[3,2-l][1,3,6,9,11,2,10]pentaoxadiphosphacyclotetradecin-14-yl]-9H-purine-6-carboxamide] | 75.4 | 39 | 

Continued, in another order:

EC50 (full-length HAQ STING) [nM] | Compound | % Effect at 30 μM relative to 2′3′-cGAMP [1, 2] [%] | % Effect at 30 μM relative to 2′3′-cGAMP [1] [%]
4.8 | CO[C@H]1[C@H]2OP(=O)(O)OC[C@H]3O[C@@H](n4cnc5c(O)ncnc54)[C@H](O)[C@@H]3OP(=O)(O)OC[C@H]1O[C@H]2n1cnc2c(=O)[nH]c(N)nc21 [Example 301, 2-amino-9-[(5R,7R,8R,12aR,14R,15R,15aS,16R)-2,10,15-trihydroxy-14-(6-hydroxy-9H-purin-9-yl)-16-methoxy-2,10-dioxidooctahydro-12H-5,8-methanofuro[3,2-l][1,3,6,9,11,2,10]pentaoxadiphosphacyclotetradecin-7-yl]-1,9-dihydro-6H-purin-6-one] | 107 | 
1.7 | Nc1nc2c(ncn2[C@@H]2O[C@@H]3COP(=O)(O)O[C@H]4[C@@H](O)[C@H](n5cnc6c(N)ncnc65)O[C@@H]4COP(=O)(O)O[C@@H]2[C@@H]3O)c(=S)[nH]1 [Example 53, 2-amino-9-[(5R,7R,8R,12aR,14R,15R,15aS,16R)-14-(6-amino-9H-purin-9-yl)-2,10,15,16-tetrahydroxy-2,10-dioxidooctahydro-12H-5,8-methanofuro[3,2-l][1,3,6,9,11,2,10]pentaoxadiphosphacyclotetradecin-7-yl]-1,9-dihydro-6H-purine-6-thione] | 127 | 
378 | Nc1nc2c(ncn2[C@@H]2O[C@@H]3COP(=O)(O)O[C@H]4[C@H](Cl)[C@H](n5cnc6c(N)ncnc65)O[C@@H]4COP(=O)(O)O[C@@H]2[C@@H]3O)c(=O)[nH]1 [Example 15, 2-amino-9-[(5R,7R,8R,12aR,14R,15S,15aR,16R)-14-(6-amino-9H-purin-9-yl)-15-chloro-2,10,16-trihydroxy-2,10-dioxidooctahydro-12H-5,8-methanofuro[3,2-l][1,3,6,9,11,2,10]pentaoxadiphosphacyclotetradecin-7-yl]-1,9-dihydro-6H-purin-6-one] | 39 | 
161 | Nc1nc2c(ncn2[C@@H]2O[C@@H]3COP(=O)(S)O[C@H]4[C@@H](O)[C@H](n5ccc6c(N)ncnc65)O[C@@H]4COP(=O)(S)O[C@@H]2C3)c(=O)[nH]1 (single isomer, unassigned) [Example 77] | 39 | 
2.5 | Nc1nc2c(ncn2[C@@H]2O[C@@H]3CO[P@@](=O)(S)O[C@H]4[C@@H](O)[C@H](n5cnc6c(=O)[nH]cnc65)O[C@@H]4CO[P@@](=O)(S)O[C@@H]2C3)c(=O)[nH]1 [Example 290, 2-amino-9-[(2R,5S,7R,8R,10R,12aR,14R,15R,15aS)-15-hydroxy-2,10-dioxido-14-(6-oxo-1,6-dihydro-9H-purin-9-yl)-2,10-disulfanyloctahydro-12H-5,8-methanofuro[3,2-l][1,3,6,9,11,2,10]pentaoxadiphosphacyclotetradecin-7-yl]-1,9-dihydro-6H-purin-6-one] | 90 | 
< 1 | Nc1nc2c(ncn2[C@@H]2O[C@@H]3COP(=O)(S)O[C@H]4[C@H](F)[C@H](n5cnc6c(=O)[nH]cnc65)O[C@@H]4COP(=O)(S)O[C@@H]2C3)c(=O)[nH]1 (single isomer, unassigned) [Example 317] | 107 | 

From patent US11453697B1, “Cyclic di-nucleotide compounds as sting agonists” (Merck Sharp & Dohme Corp., priority 2015, dated 2022)
